Assay results published in publication PMC6128652, “Structure of the Cladosporium fulvum Avr4 effector in complex with (GlcNAc)6 reveals the ligand-binding mechanism and uncouples its intrinsic function from recognition by the Cf-4 resistance protein” (PLoS Pathogens, 2018).
Where a chain is given by its changes, count along the chain named.

Tests used:
Settings in all cases: n = 3
D94A = target: T1, D94A (Fulvia fulva, UniProt Q00363, D94A); assay: Isothermal titration calorimetry, (GlcNAc)6 titrated into protein in 10 mM Bis-Tris, pH 6.5, 100 mM NaCl, individual binding site model; temperature not given.
T1 construct: gene AVR4; true mature form Lys30-Gln115, E. coli Rosetta-gami B
T1 sequence (Q00363 30-115 D94A): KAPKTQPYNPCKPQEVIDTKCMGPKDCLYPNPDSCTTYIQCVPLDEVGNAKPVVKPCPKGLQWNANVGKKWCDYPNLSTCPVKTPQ
Description: (§1) All ITC experiments were performed on a TA Instruments low volume NanoITC with a 186uL reaction cell and a reference cell filled with degassed Milli-Q grade water. Reactions were run in a buffer containing 10mM Bis-Tris, pH 6.5, 100 mM NaCl. The reservoir solution was filled with protein solution and continuously stirred while Chitin hexasaccharide solutions titrated in 2.5μL aliquots for 19 injections, with an initial 1μL injection, for a total injection volume of 48.5μL. The carbohydrate solutions were made by dissolving the dry powder in buffer to a concentration of 20mM (confirmed using methods described above) and then diluted to the working concentration using the final buffer exchange flow through to match the buffers as closely as possible. The integrated heats, after correction for the heat of dilution were analyzed using the NanoAnalyze software from […]. An individual binding site model was used to fit the binding isotherm. All experiments were replicated a minimum of three times.
(§2) The parameters remained similar irrespectively of whether or not the purification tag was removed from the protein or whether a reverse titration was run, in which concentrated CfAvr4 was titrated into a dilute solution of (GlcNAc)6, with no evidence of allosteric or dimer dissociation (S2 Table and S6 Fig). The values are also in good agreement with previously reported data except for the stoichiometric ratio [9]. […] Due to this discrepancy, we took great care to verify the concentration of CfAvr4 using a Bradford assay, and quantitated the carbohydrate concentration.
(§3) A stock solution of the monomer of N-acetylglucosamine was prepared by dissolving the dry powder in a buffer containing 10 mM Bis-Tris, pH 6.5, 100 mM NaCl to a concentration of 0.100 g/L using analytic techniques. Standard solution of 0, 0.010, 0.025, 0.050, 0.075 g/L were prepared by serial dilutions. Using glass test tubes and pipets, 100 μL of each standard was mixed with 300μL of concentrated sulfuric acid and vortexed for 10 sec to mix. Solutions were incubated at RT for 10 min and then placed on ice to stop the reaction. […] Analytically prepared solution of the di- and tri-saccharide scaled linearly to the calibration curve. To determine the concentration of the chitin hexasaccharide solutions used in ITC, the solutions were diluted into the dynamic range of the calibration curve (S12 Fig) and subjected to the above procedure.

K84A = target: T2, K84A (Fulvia fulva, UniProt Q00363, K84A); assay: as above
T2 construct: gene AVR4; true mature form Lys30-Gln115, E. coli Rosetta-gami B
T2 sequence (Q00363 30-115 K84A): T1 sequence (Q00363 30-115 D94A) with K55A, A65D
Description: as §1, §2, §3

M51A = target: T3, M51A (Fulvia fulva, UniProt Q00363, M51A); assay: as above
T3 construct: gene AVR4; true mature form Lys30-Gln115, E. coli Rosetta-gami B
T3 sequence (Q00363 30-115 M51A): T1 sequence (Q00363 30-115 D94A) with M22A, A65D
Description: as §1, §2, §3

N93A = target: T4, N93A (Fulvia fulva, UniProt Q00363, N93A); assay: as above
T4 construct: gene AVR4; true mature form Lys30-Gln115, E. coli Rosetta-gami B
T4 sequence (Q00363 30-115 N93A): T1 sequence (Q00363 30-115 D94A) with N64A, A65D
Description: as §1, §2, §3

N95A = target: T5, N95A (Fulvia fulva, UniProt Q00363, N95A); assay: as above
T5 construct: gene AVR4; true mature form Lys30-Gln115, E. coli Rosetta-gami B
T5 sequence (Q00363 30-115 N95A): T1 sequence (Q00363 30-115 D94A) with A65D, N66A
Description: as §1, §2, §3

P53A = target: T6, P53A (Fulvia fulva, UniProt Q00363, P53A); assay: as above
T6 construct: gene AVR4; true mature form Lys30-Gln115, E. coli Rosetta-gami B
T6 sequence (Q00363 30-115 P53A): T1 sequence (Q00363 30-115 D94A) with P24A, A65D
Description: as §1, §2, §3

P87A = target: T7, P87A (Fulvia fulva, UniProt Q00363, P87A); assay: as above
T7 construct: gene AVR4; true mature form Lys30-Gln115, E. coli Rosetta-gami B
T7 sequence (Q00363 30-115 P87A): T1 sequence (Q00363 30-115 D94A) with P58A, A65D
Description: as §1, §2, §3

Q69N = target: T8, Q69N (Fulvia fulva, UniProt Q00363, Q69N); assay: as above
T8 construct: gene AVR4; true mature form Lys30-Gln115, E. coli Rosetta-gami B
T8 sequence (Q00363 30-115 Q69N): T1 sequence (Q00363 30-115 D94A) with Q40N, A65D
Description: as §1, §2, §3

WT-CfAvr4 [1] = target: T9, WT-CfAvr4 (Fulvia fulva, UniProt Q00363); assay: as above
T9 construct: gene AVR4; true mature form Lys30-Gln115, N-terminal two 6x His tags and rhinovirus 3C site (tag retained, by contrast with the w/o tag row), E. coli Rosetta-gami B
Description: as §1, §2, §3

WT-CfAvr4 w/o tag = target: T10, WT-CfAvr4 w/o tag (Fulvia fulva, UniProt Q00363); assay: as above
T10 construct: gene AVR4; true mature form Lys30-Gln115, purification tag removed with rhinovirus 3C protease, E. coli Rosetta-gami B
Description: as §1, §2, §3

Y103F = target: T11, Y103F (Fulvia fulva, UniProt Q00363, Y103F); assay: as above
T11 construct: gene AVR4; true mature form Lys30-Gln115, E. coli Rosetta-gami B
T11 sequence (Q00363 30-115 Y103F): T1 sequence (Q00363 30-115 D94A) with A65D, Y74F
Description: as §1, §2, §3

Y67F = target: T12, Y67F (Fulvia fulva, UniProt Q00363, Y67F); assay: as above
T12 construct: gene AVR4; true mature form Lys30-Gln115, E. coli Rosetta-gami B
T12 sequence (Q00363 30-115 Y67F): T1 sequence (Q00363 30-115 D94A) with Y38F, A65D
Description: as §1, §2, §3

WT-CfAvr4 [2] = target: T9, WT-CfAvr4; assay: Isothermal titration calorimetry, reverse titration with concentrated CfAvr4 titrated into dilute (GlcNAc)6, 10 mM Bis-Tris, pH 6.5, 100 mM NaCl; temperature not given.; format: binding
Description: as §2
All ITC experiments were performed on a TA Instruments low volume NanoITC with a 186uL reaction cell and a reference cell filled with degassed Milli-Q grade water. Reactions were run in a buffer containing 10mM Bis-Tris, pH 6.5, 100 mM NaCl. The reservoir solution was filled with protein solution and continuously stirred while Chitin hexasaccharide solutions titrated in 2.5μL aliquots for 19 injections, with an initial 1μL injection, for a total injection volume of 48.5μL. […] The integrated heats, after correction for the heat of dilution were analyzed using the NanoAnalyze software from ITC Technologies. […]

T9 sequence (Q00363 30-115): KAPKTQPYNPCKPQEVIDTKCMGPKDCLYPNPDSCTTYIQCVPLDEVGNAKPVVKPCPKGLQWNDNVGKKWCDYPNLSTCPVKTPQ
T10 sequence (Q00363 30-115): as above

Work on `CC(=O)N[C@H]1[C@H](O[C@H]2[C@H](O)[C@@H](NC(C)=O)[C@H](O[C@H]3[C@H](O)[C@@H](NC(C)=O)C(O)O[C@@H]3CO)O[C@@H]2CO)O[C@H](CO)[C@@H](O[C@@H]2O[C@H](CO)[C@@H](O[C@@H]3O[C@H](CO)[C@@H](O[C@@H]4O[C@H](CO)[C@@H](O)[C@H](O)[C@H]4NC(C)=O)[C@H](O)[C@H]3NC(C)=O)[C@H](O)[C@H]2NC(C)=O)[C@@H]1O` (stereo partly drawn) [(GlcNAc)6, chitohexaose (chitin hexasaccharide, beta-1,4-linked N-acetylglucosamine hexamer)] yielded a Kd (D94A) of 37.6 µM, a Kd (K84A) of 121 µM and a Kd (M51A) of 9.2 µM. The Kd (N93A) was 44.7 µM, the Kd (N95A) was 18.8 µM and the Kd (P53A) was 11.3 µM. For the same molecule, the Kd (P87A) was 17.9 µM, the Kd (Q69N) was 131 µM and the Kd (WT-CfAvr4 [1]) was 7.63 µM. The Kd (WT-CfAvr4 w/o tag) was 6.73 µM, the Kd (Y103F) was 12.2 µM and the Kd (Y67F) was 6.86 µM. For the same molecule, the Kd (WT-CfAvr4 [2]) was 7.16 µM.
